The source of these data is ChEMBL document CHEMBL6083240, “Design, synthesis and biological evaluation of arylpropylamine derivatives as potential multi-target antidepressants” (Bioorg Med Chem, 2024).

The target in one data set is Transporter (Rattus norvegicus, UniProt Q63380). As to the kind of experiment: Binding affinity to rat NET.
The next data set concerns Rattus norvegicus. As to the kind of experiment: Antidepressant activity against ACTH-induced treatment resistant depression in Sprague-Dawley rat model assessed as reduction in immobility time at 30 mg/kg, ip by forced swimming test. It counts as functional, organism-based.
Data set [1] is described as follows: In vivo inhibition of 5-HT2A in po dosed DOI-induced Kunming mouse assessed as reduction in head twitch response pretreated for 60 mins followed by DOI induction and measured for 20 mins. It counts as functional. Conditions: 1.333 h, time 80 min.
The test system of a further data set is histamine H1 receptor. As to the kind of experiment: Displacement of [3H]-pyrilamine from H1 receptor in guinea pig cerebellum membrane incubated for 60 mins by liquid scintillation counting method. It counts as toxicity, cell membranes, Cavia porcellus. The conditions noted are these: probe [3H]-pyrilamine.
In data set [2] the target is T1, Alpha-1A adrenergic receptor (Rattus norvegicus, UniProt P43140).
T1 sequence (P43140 whole entry): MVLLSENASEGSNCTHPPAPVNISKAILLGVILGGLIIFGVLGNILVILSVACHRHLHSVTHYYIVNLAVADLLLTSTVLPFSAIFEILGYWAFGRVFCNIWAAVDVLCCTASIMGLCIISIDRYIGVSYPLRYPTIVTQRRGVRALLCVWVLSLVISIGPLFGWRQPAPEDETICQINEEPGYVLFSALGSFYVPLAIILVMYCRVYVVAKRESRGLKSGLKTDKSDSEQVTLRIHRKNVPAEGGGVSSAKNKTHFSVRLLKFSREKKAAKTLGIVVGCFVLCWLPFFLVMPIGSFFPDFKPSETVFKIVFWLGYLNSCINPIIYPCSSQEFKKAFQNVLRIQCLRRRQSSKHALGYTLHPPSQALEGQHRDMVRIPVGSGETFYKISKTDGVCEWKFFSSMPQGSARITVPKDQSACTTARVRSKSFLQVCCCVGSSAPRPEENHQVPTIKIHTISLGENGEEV
Nature of the data set: Displacement of [3H]-prazosin from adrenergic alpha-1 receptor in rat cerebral cortex incubated for 60 mins by liquid scintillation counting method. It counts as toxicity, tissue-based.

Data set [3] deals with 5-hydroxytryptamine receptor 2A (Rattus norvegicus, UniProt P14842). Nature of the data set: Displacement of [3H]-ketanserin from 5-HT2A in rat cerebral cortex incubated for 15 mins by liquid scintillation counting method. It counts as tissue-based.
Sequence of 5-hydroxytryptamine receptor 2A (P14842 whole entry): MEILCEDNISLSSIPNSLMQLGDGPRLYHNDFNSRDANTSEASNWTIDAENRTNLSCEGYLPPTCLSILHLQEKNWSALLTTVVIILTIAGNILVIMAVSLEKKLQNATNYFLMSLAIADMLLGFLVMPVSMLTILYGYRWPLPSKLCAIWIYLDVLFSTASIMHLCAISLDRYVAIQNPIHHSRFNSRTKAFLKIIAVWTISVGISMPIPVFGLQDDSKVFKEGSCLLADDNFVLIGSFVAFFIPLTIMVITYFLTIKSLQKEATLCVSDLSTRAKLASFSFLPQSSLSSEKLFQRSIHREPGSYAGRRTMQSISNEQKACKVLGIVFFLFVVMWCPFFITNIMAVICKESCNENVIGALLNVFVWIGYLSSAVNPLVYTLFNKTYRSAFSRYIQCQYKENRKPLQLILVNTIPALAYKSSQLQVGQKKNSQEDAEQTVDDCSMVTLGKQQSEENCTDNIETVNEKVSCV
Data set [4] has as its system Mus musculus. As to the kind of experiment: Antidepressant activity in IG dosed Kunming mouse assessed as decrease in immobility time by measuring minimal effective dose by forced swimming test. It counts as functional.
Data set [5] in a line: Acute toxicity in po dosed Sprague-Dawley rat assessed as mortality rate measured after 24 hrs. It counts as organism-based. The conditions noted are these: in vivo.
Data set [6] deals with T2, 5-hydroxytryptamine receptor 2C (Rattus norvegicus, UniProt P08909).
T2 sequence (P08909 whole entry): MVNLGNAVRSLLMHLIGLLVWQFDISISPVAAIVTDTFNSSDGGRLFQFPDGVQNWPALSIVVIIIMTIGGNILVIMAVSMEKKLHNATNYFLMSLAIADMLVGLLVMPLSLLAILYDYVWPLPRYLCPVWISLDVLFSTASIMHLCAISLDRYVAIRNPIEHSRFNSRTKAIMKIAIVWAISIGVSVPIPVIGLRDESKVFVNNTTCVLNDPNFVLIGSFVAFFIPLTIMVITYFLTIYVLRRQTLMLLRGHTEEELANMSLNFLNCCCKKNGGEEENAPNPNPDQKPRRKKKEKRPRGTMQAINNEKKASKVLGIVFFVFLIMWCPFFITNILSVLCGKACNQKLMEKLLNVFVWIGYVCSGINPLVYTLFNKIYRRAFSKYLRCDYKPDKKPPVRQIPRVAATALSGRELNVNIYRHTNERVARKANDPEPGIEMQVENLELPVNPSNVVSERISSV
As to the kind of experiment: Displacement of [3H]-mesulergine from 5-HT2C in rat cerebral cortex incubated for 15 mins by liquid scintillation counting method. It counts as tissue-based.

The subject of data set [7] is Mus musculus. Nature of the data set: Antidepressant activity in IG dosed Kunming mouse assessed as decrease in immobility time by measuring minimal effective dose by tail suspension test. It counts as functional.
For data set [8], the system named is Mus musculus. Nature of the data set: Antidepressant activity in Kunming mouse chronic unpredictable mild stress model assessed as increase in sucrose preference at 20 mg/kg, IG measured after 1 to 3 weeks. Conditions: time 1-3 weeks. It counts as functional, organism-based.

Activity calls are given as the source filed them. The calls are words filed in the database; no cut-off is given here.

Sequence of Transporter (Q63380 whole entry): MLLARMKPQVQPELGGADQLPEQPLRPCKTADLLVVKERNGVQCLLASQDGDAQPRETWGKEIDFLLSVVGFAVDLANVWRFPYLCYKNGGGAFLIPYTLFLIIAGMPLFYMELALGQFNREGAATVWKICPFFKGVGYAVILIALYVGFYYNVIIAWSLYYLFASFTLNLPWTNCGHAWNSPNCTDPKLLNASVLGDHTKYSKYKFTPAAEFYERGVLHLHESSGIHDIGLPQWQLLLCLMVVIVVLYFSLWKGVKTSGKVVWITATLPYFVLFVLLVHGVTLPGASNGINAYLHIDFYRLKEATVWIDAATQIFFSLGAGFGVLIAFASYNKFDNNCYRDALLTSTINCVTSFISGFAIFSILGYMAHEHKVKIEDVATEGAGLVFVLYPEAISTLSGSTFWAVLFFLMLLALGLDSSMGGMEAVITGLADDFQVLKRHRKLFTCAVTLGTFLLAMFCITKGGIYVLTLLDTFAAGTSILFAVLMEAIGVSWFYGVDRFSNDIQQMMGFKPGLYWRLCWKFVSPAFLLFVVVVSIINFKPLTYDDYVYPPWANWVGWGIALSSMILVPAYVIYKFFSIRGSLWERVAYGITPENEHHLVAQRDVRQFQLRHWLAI

The molecule `CCc1nn(CCCN2CCN(c3cccc(Cl)c3)CC2)c(=O)n1CCOc1ccccc1` [NEFAZODONE] yielded a Ki on Transporter of 0.555 µM.
`Fc1ccc([C@@H]2CCNC[C@H]2COc2ccc3c(c2)OCO3)cc1`: in the data set on Rattus norvegicus, the result was inactive.
With `CNCC[C@H](Oc1cccc2ccccc12)c1cccs1` [DULOXETINE], the ED50 in data set [1] is 30.9 mg/kg. The affinity in the data set with histamine H1 receptor corresponds to a Ki at 60 min of 1.27 µM. Also, the Ki in [2] amounted to 1.01 µM; in [3], 1.24 µM; in data set [6], 2.47 µM. Further, the Activity result with Mus musculus [4] and in the data set on Mus musculus [7] was “Dose-dependent-effect” in each case. Besides, the minimal effective dose with Mus musculus [4] (po, read-out: MED) amounted to 16 mg/kg; with Mus musculus [7] (po, read-out: MED), 16 mg/kg. The 50% lethal dose (LD50) at 24 h in [5] was determined as 279 mg/kg.
As for `CNCCC(Oc1ccc(C(F)(F)F)cc1)c1ccccc1` (stereo not drawn), the result in the data set on Mus musculus [8] was inactive.
